Where “and” joins values, the source holds several entries; their conditions need not be identical. Identical values can stand only once. Inconclusive results and toxic doses are left out.
Tested on: BDF1 mice, P388 leukemia ip, median survival T/C
Experiment: NCI In Vivo Anticancer Drug Screen. Data for tumor model P388 Leukemia (intraperitoneal) in B6D2F1 (BDF1) mice
Details: endpoint: median survival time, higher = longer survival
Outline: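 Mice carrying the transplantable tumour receive compound or vehicle. Survival is followed in each arm, and the treated measure is divided by the vehicle measure.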

[1] = dose: 25.0 mg/kg/injection, schedule: Q04DX003 (ip), vehicle: Klucel (hydroxypropylcellulose) (HPC)
[2] = dose: 50.0 mg/kg/injection, schedule: Q04DX003 (ip), vehicle: Klucel (hydroxypropylcellulose) (HPC)
[3] = dose: 100.0 mg/kg/injection, schedule: Q04DX003 (ip), vehicle: Klucel (hydroxypropylcellulose) (HPC)

## CC(CC(=O)O)C(C(=O)O)C(=O)O (stereo not drawn)
dose: 6.25 mg/kg/injection, schedule: Q04DX003 (ip), vehicle: Klucel (hydroxypropylcellulose) (HPC)
  T/C: 94 % of control
dose: 6.25 mg/kg/injection, schedule: Q04DX003 (ip), vehicle: water
  T/C: 107 % of control
dose: 12.5 mg/kg/injection, schedule: Q01DX009 (ip), vehicle: water
  T/C: 108 % of control
dose: 12.5 mg/kg/injection, schedule: Q04DX003 (ip), vehicle: Klucel (hydroxypropylcellulose) (HPC)
  T/C: 92 % of control
dose: 12.5 mg/kg/injection, schedule: Q04DX003 (ip), vehicle: water
  T/C: 95 % of control and 105 % of control
dose: 25.0 mg/kg/injection, schedule: Q01DX009 (ip), vehicle: water
  T/C: 107 % of control
[1]
  T/C: 92 % of control
dose: 25.0 mg/kg/injection, schedule: Q04DX003 (ip), vehicle: water
  T/C: 266 % of control and 94 % of control and 110 % of control
[2]
  T/C: 90 % of control
dose: 50.0 mg/kg/injection, schedule: Q04DX003 (ip), vehicle: water
  T/C: 266 % of control and 95 % of control and 117 % of control
dose: 100.0 mg/kg/injection, schedule: Q01DX009 (ip), vehicle: water
  T/C: 100 % of control
[3]
  T/C: 91 % of control
dose: 100.0 mg/kg/injection, schedule: Q04DX003 (ip), vehicle: water
  T/C: 86 % of control and 95 % of control and 100 % of control
dose: 200.0 mg/kg/injection, schedule: Q01DX009 (ip), vehicle: water
  T/C: 91 % of control
dose: 200.0 mg/kg/injection, schedule: Q04DX003 (ip), vehicle: Klucel (hydroxypropylcellulose) (HPC)
  T/C: 90 % of control
dose: 200.0 mg/kg/injection, schedule: Q04DX003 (ip), vehicle: water
  T/C: 101 % of control and 111 % of control
dose: 400.0 mg/kg/injection, schedule: Q01DX009 (ip), vehicle: water
  T/C: 91 % of control

## CC(=O)/C=C/c1ccc2c(c1)OCO2
dose: 25.0 mg/kg/injection, schedule: Q04DX003 (ip), vehicle: saline
  T/C: 105 % of control
dose: 50.0 mg/kg/injection, schedule: Q04DX003 (ip), vehicle: saline
  T/C: 103 % of control
dose: 100.0 mg/kg/injection, schedule: Q04DX003 (ip), vehicle: saline
  T/C: 102 % of control and 114 % of control
dose: 200.0 mg/kg/injection, schedule: Q04DX003 (ip), vehicle: saline
  T/C: 100 % of control and 108 % of control and 122 % of control
dose: 300.0 mg/kg/injection, schedule: Q04DX003 (ip), vehicle: saline
  T/C: 100 % of control and 103 % of control
dose: 400.0 mg/kg/injection, schedule: Q04DX003 (ip), vehicle: saline
  T/C: 91 % of control and 94 % of control
dose: 500.0 mg/kg/injection, schedule: Q04DX003 (ip), vehicle: saline
  T/C: 106 % of control and 109 % of control

## O=[N+]([O-])c1ccc(S)cc1
dose: 18.75 mg/kg/injection, schedule: Q01DX009 (ip), vehicle: saline sonified
  T/C: 100 % of control
dose: 37.5 mg/kg/injection, schedule: Q01DX009 (ip), vehicle: saline sonified
  T/C: 100 % of control
dose: 75.0 mg/kg/injection, schedule: Q01DX009 (ip), vehicle: saline sonified
  T/C: 117 % of control

## CCOC(=O)C[n+]1c(C)sc2ccccc21
dose: 50.0 mg/kg/injection, schedule: Q01DX005 (ip), vehicle: saline
  T/C: 99 % of control
dose: 100.0 mg/kg/injection, schedule: Q01DX005 (ip), vehicle: saline
  T/C: 92 % of control
dose: 200.0 mg/kg/injection, schedule: Q01DX005 (ip), vehicle: saline
  T/C: 101 % of control

## O=C(NN=C1CCCCC1)c1ccccc1
[1]
  T/C: 100 % of control
dose: 50.0 mg/kg/injection, schedule: Q01DX009 (ip), vehicle: Klucel (hydroxypropylcellulose) (HPC)
  T/C: 100 % of control
[2]
  T/C: 100 % of control
dose: 56.25 mg/kg/injection, schedule: Q01DX001 (ip), vehicle: Klucel (hydroxypropylcellulose) (HPC)
  T/C: 100 % of control
dose: 100.0 mg/kg/injection, schedule: Q01DX009 (ip), vehicle: Klucel (hydroxypropylcellulose) (HPC)
  T/C: 110 % of control
[3]
  T/C: 86 % of control
dose: 112.5 mg/kg/injection, schedule: Q01DX001 (ip), vehicle: Klucel (hydroxypropylcellulose) (HPC)
  T/C: 104 % of control
dose: 150.0 mg/kg/injection, schedule: Q04DX003 (ip), vehicle: Klucel (hydroxypropylcellulose) (HPC)
  T/C: 104 % of control
dose: 225.0 mg/kg/injection, schedule: Q01DX001 (ip), vehicle: Klucel (hydroxypropylcellulose) (HPC)
  T/C: 109 % of control
dose: 225.0 mg/kg/injection, schedule: Q04DX003 (ip), vehicle: Klucel (hydroxypropylcellulose) (HPC)
  T/C: 95 % of control

## O[C@]12CC=CC[C@]1(O)CC(N1CCCCC1)C2
dose: 25.0 mg/kg/injection, schedule: Q01DX009 (ip), vehicle: saline
  T/C: 99 % of control
dose: 50.0 mg/kg/injection, schedule: Q01DX009 (ip), vehicle: saline
  T/C: 124 % of control
dose: 100.0 mg/kg/injection, schedule: Q01DX009 (ip), vehicle: saline
  T/C: 92 % of control
